Assay results published in article PMC4136699 (ACS Chemical Biology, 2014).
Where a SMILES comes first, the peptide text is derived from it. The star is where a group is joined. Dansyl = CN(C)c1cccc2c(S(=O)(=O)*)cccc12

Assays:
yPFTase = target: T1, yPFTase (Saccharomyces cerevisiae, UniProt P22007+P29703); assay: Continuous fluorescence kinetic assay of dansylated Ds-GCa1a2X peptides; format: biochemical; conditions: greater with yPFTase, Table S4
T1 sequence (P22007 1-431): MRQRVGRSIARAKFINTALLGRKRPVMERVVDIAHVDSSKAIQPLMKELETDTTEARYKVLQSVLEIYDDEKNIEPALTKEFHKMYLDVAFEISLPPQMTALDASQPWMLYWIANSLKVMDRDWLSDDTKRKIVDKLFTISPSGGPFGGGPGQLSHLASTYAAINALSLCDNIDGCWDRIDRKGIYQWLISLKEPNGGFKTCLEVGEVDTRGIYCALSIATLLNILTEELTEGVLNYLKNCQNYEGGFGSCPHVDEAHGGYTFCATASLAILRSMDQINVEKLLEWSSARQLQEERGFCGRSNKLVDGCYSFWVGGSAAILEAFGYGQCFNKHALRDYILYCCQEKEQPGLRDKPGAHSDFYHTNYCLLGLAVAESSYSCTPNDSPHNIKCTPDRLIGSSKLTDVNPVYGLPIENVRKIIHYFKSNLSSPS
T1 sequence (P29703 1-316 partner): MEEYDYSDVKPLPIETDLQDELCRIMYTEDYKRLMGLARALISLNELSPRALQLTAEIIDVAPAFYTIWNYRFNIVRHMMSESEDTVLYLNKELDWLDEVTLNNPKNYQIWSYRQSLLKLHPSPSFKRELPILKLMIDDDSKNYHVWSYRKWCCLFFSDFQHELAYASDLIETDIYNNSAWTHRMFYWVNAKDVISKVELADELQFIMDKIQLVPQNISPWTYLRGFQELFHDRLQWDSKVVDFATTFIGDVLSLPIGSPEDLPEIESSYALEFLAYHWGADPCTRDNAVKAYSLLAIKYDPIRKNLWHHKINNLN

CaPFTase = assay: as above; format: biochemical, Candida albicans; conditions: greater with CaPFTase, Table S4

kcat/KM of yPFTase compared with rPFTase (yPFTase)	kcat/KM of CaPFTase compared with rPFTase (CaPFTase)	Compound
11 fold		Ds-GCVTN
	6.2 fold	CC(C)[C@H](NC(=O)[C@@H](NC(=O)[C@@H](NC(=O)[C@H](CS)NC(=O)CNS(=O)(=O)c1cccc2c(N(C)C)cccc12)C(C)C)C(C)C)C(=O)O [Ds-GCVVV] (Dansyl-GCVVV-OH)
